Test results published in publication PMC6152131, “Pharmacokinetic Study of Biotransformation Products from an Anxiolytic Fraction of Tilia americana” (Molecules : A Journal of Synthetic Chemistry and Natural …, 2017).

Key:
[1] = Stability of flavonoids and biotransformation products in mouse plasma under different handling conditions; assay type: in vitro ADME, mice; details: for Accuracy Bias 0 h / Observed Conc. 0 h / Accuracy Bias 8 h / Observed Conc. 8 h / Accuracy Bias 24 h / Observed Conc. 24 h: room temperature (25 °C); for Observed Conc. 0 h / Observed Conc. 8 h / Observed Conc. 24 h / Observed Conc. Autosampler (4 °C; 8 h) / Observed Conc. Long-term (−70 °C; 1 month): n = 6; for Accuracy Bias Autosampler (4 °C; 8 h) / Accuracy Bias Long-term (−70°C; 1 month) / Observed Conc. Autosampler (4 °C; 8 h) / Observed Conc. Long-term (−70 °C; 1 month): storage stability
Procedure, shortened: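 Mouse plasma QC samples containing the flavonoids and their biotransformation products were tested for stability across storage and handling conditions, including long-term, autosampler and bench-top tests. Samples were extracted with methanol, filtered, and analyzed by HPLC on an RP-18e column with acetonitrile–water (55:45) at 1 mL/min and detection at λ = 220 nm. Results were compared against fresh QC samples; stability required deviation below 15%.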

[2] = Plasma concentration after a single oral dose of the anxiolytic fraction (HPLC); assay type: in vivo, ICR mice; details: mouse, plasma, ICR mice, n = 10
Procedure, shortened: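 Animals dosed orally with 200 mg/kg of active fraction; retro-orbital blood taken from separate groups of ten at 0–1440 min. Lyophilized plasma extracted in methanol and analysed by RP-18 HPLC with diode-array detection at 220 nm against a calibration curve; PK parameters from observed data, mean ± SD.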

[3] = Pharmacokinetic analysis, two-compartment model (PKSolver); assay type: in vivo, ICR mice; details: two-compartment model
Experimental: The data shown in Table 2 were applied to the program PKSolver. After a single oral administration of 200 mg/kg of the anxiolitic fraction of T. americana, the behavior of the concentration-time data allowed us to determine the main pharmacokinetic parameters under a two-compartment model (Table 3), and the same program provided the graphical behavior of the variables and the adjustment to the two-compartment model.
To evaluate the suitability of the assay for the pharmacokinetic studies, 200 mg/kg of the active fraction was orally administered to the animals. Ten animals were used in each group at different times (0, 5, 10, 15, 30, 60, 120, 240, 480, 720, and 1440 min). Pharmacokinetic calculations were performed using the observed data. All data was subsequently processed using the PKSolver add-in program for Microsoft Excel written in Visual Basic for Applications. All values obtained were expressed in mean ± standard deviation.
For the pharmacokinetic assay, the selection was made either from a one-compartment or a two-compartment model, with the use of both the Akaike information criterion (AIC) and the Schwarz criterion (SC). Using these two criteria, one can select which model is more suited to being adjusted, to the point where it reaches the lowest values of the AIC or SC criteria, which means that the chosen model is more parsimonious (less parameters required) and best fits the data (low error prediction).

[4] = high nominal conc. (7.00; 44.37; 4.50; 31.25 µg/mL)
[5] = low nominal conc. (1.75; 11.02; 1.12; 1.95 µg/mL)
[6] = medium nominal conc. (3.50; 22.18; 2.24; 7.81 µg/mL)
[7] = mouse, oral 200 mg/kg anxiolytic fraction, ICR mice plasma
[8] = oral 200 mg/kg anxiolytic fraction, ICR mice plasma
[9] = oral 200 mg/kg anxiolytic fraction, ICR mice plasma, n = 10

Accuracy Bias 0 h ([1]; high nominal conc.): 1.64%
Observed Conc. 0 h ([1]; high nominal conc. (rutin 7.00; quercetin glucoside, quercitrin, tiliroside 44.37; kaempferol 4.50; m-HPAA, p-HPAA, DOPAC 31.25 µg/mL)): 31.76 ± 0.28 µg/mL
Accuracy Bias 0 h ([1]; low nominal conc.): 1.44%
Observed Conc. 0 h ([1]; low nominal conc. (rutin 1.75; quercetin glucoside, quercitrin, tiliroside 11.02; kaempferol 1.12; m-HPAA, p-HPAA, DOPAC 1.95 µg/mL)): 1.92 ± 0.02 µg/mL
Accuracy Bias 0 h ([1]; medium nominal conc.): 0.65%
Observed Conc. 0 h ([1]; medium nominal conc. (rutin 3.50; quercetin glucoside, quercitrin, tiliroside 22.18; kaempferol 2.24; m-HPAA, p-HPAA, DOPAC 7.81 µg/mL)): 7.86 ± 0.11 µg/mL
Accuracy Bias 8 h ([1]; high nominal conc.): 1.26%
Observed Conc. 8 h [1, 4]: 31.64 ± 0.28 µg/mL
Accuracy Bias 8 h ([1]; low nominal conc.): 1.40%
Observed Conc. 8 h [1, 5]: 1.92 ± 0.02 µg/mL
Accuracy Bias 8 h ([1]; medium nominal conc.): 2.05%
Observed Conc. 8 h [1, 6]: 7.94 ± 0.11 µg/mL
Accuracy Bias 24 h ([1]; high nominal conc.): 1.26%
Observed Conc. 24 h [1, 4]: 31.64 ± 0.31 µg/mL
Accuracy Bias 24 h ([1]; low nominal conc.): 0.85%
Observed Conc. 24 h [1, 5]: 1.93 ± 0.01 µg/mL
Accuracy Bias 24 h ([1]; medium nominal conc.): 1.01%
Observed Conc. 24 h [1, 6]: 7.89 ± 0.05 µg/mL
Accuracy Bias Autosampler (4 °C; 8 h) ([1]; high nominal conc.): 1.40%
Accuracy Bias Long-term (−70°C; 1 month) ([1]; high nominal conc.): 0.85%
Observed Conc. Autosampler (4 °C; 8 h) [1, 4]: 31.64 ± 0.28 µg/mL
Observed Conc. Long-term (−70 °C; 1 month) [1, 4]: 31.64 ± 0.28 µg/mL
Accuracy Bias Autosampler (4 °C; 8 h) ([1]; low nominal conc.): 1.26%
Accuracy Bias Long-term (−70°C; 1 month) ([1]; low nominal conc.): 1.26%
Observed Conc. Autosampler (4 °C; 8 h) [1, 5]: 1.93 ± 0.02 µg/mL
Observed Conc. Long-term (−70 °C; 1 month) [1, 5]: 1.92 ± 0.01 µg/mL
Accuracy Bias Autosampler (4 °C; 8 h) ([1]; medium nominal conc.): 2.05%
Accuracy Bias Long-term (−70°C; 1 month) ([1]; medium nominal conc.): 1.01%
Observed Conc. Autosampler (4 °C; 8 h) [1, 6]: 7.89 ± 0.11 µg/mL
Observed Conc. Long-term (−70 °C; 1 month) [1, 6]: 7.97 ± 0.05 µg/mL
concentration at 5 min ([2]; 5 min after single oral dose of 200 mg/kg of the anxiolytic fraction, ND = not detected): 5400 ± 360 ng/mL
concentration at 10 min ([2]; 10 min after single oral dose of 200 mg/kg of the anxiolytic fraction): 6710 ± 440 ng/mL
concentration at 15 min ([2]; 15 min after single oral dose of 200 mg/kg of the anxiolytic fraction): 6010 ± 330 ng/mL
concentration at 30 min ([2]; 30 min after single oral dose of 200 mg/kg of the anxiolytic fraction): 5380 ± 510 ng/mL
concentration at 60 min ([2]; 60 min after single oral dose of 200 mg/kg of the anxiolytic fraction): 5310 ± 540 ng/mL
concentration at 120 min ([2]; 120 min after single oral dose of 200 mg/kg of the anxiolytic fraction): 5290 ± 320 ng/mL
concentration at 240 min ([2]; 240 min after single oral dose of 200 mg/kg of the anxiolytic fraction): 5150 ± 230 ng/mL
concentration at 480 min ([2]; 480 min after single oral dose of 200 mg/kg of the anxiolytic fraction): 5080 ± 240 ng/mL
concentration at 720 min ([2]; 720 min after single oral dose of 200 mg/kg of the anxiolytic fraction): 4990 ± 350 ng/mL
concentration at 1440 min ([2]; 1440 min after single oral dose of 200 mg/kg of the anxiolytic fraction): 4910 ± 210 ng/mL
AUC(0-inf) [3, 7]: 183 µg·h/mL
Cmax [3, 7]: 6260 ng/mL
Tmax [3, 7]: 0.186 h
AUC(0-t) ([3]; mouse, oral 200 mg/kg anxiolytic fraction, ICR mice plasma, read-out: AUC0→1440 (converted)): 73.7 µg·h/mL
MRT ([3]; mouse, oral 200 mg/kg anxiolytic fraction, ICR mice plasma, read-out: MRT (mean residence time) (converted)): 47.2 h
k el ([3]; mouse, oral 200 mg/kg anxiolytic fraction, ICR mice plasma, read-out: k10 (apparent first-order elimination rate constant from the central compartment) (converted)): 1e-05 s⁻¹
half-life ([3]; mouse, oral 200 mg/kg anxiolytic fraction, ICR mice plasma, read-out: t1/2β): 33.2 h
CL/F (apparent clearance) [3, 8]: 0.018 (mg/Kg)/(μg/mL)/min
V/F (apparent volume of distribution) [3, 8]: 29.46 (mg/Kg)/(µg/mL)
k12 (transfer rate constant central to peripheral compartment) [3, 8]: 0.007 min⁻¹
k21 (transfer rate constant peripheral to central compartment) [3, 8]: 0.009 min⁻¹
ka (apparent first-order absorption rate constant) [3, 8]: 0.36 min⁻¹
t1/2ka (absorption half time) [3, 8]: 1.92 min
t1/2α [3, 8]: 0.7042 h
α [3, 8]: 0.02 min⁻¹
β [3, 8]: 0.0003 min⁻¹
A (plasma concentration coefficient, central compartment) [3, 9]: 3.19 µg/mL
B (plasma concentration coefficient, peripheral compartment) [3, 9]: 3.75 µg/mL
index: relation between rate constants of k12 with respect to k21 [3]: 0.77
SMILES: O=C(O)Cc1ccc(O)cc1 [p-HPAA, para-hydroxyphenylacetic acid]
